{"source": "patent US20190231718A1", "about": "“TREATMENT OF BREAST CANCER” (Duke University, priority 2016, published 2019)", "key": {"[1]": {"target": "T1, ESR1 wild type receptor (ERα WT) (Homo sapiens, UniProt P03372)", "T1 construct": "expressed in transfected cells; host or cells: Caov2 ovarian carcinoma cells; SKBR3 breast adenocarcinoma cells", "T1 sequence (P03372 1-595)": "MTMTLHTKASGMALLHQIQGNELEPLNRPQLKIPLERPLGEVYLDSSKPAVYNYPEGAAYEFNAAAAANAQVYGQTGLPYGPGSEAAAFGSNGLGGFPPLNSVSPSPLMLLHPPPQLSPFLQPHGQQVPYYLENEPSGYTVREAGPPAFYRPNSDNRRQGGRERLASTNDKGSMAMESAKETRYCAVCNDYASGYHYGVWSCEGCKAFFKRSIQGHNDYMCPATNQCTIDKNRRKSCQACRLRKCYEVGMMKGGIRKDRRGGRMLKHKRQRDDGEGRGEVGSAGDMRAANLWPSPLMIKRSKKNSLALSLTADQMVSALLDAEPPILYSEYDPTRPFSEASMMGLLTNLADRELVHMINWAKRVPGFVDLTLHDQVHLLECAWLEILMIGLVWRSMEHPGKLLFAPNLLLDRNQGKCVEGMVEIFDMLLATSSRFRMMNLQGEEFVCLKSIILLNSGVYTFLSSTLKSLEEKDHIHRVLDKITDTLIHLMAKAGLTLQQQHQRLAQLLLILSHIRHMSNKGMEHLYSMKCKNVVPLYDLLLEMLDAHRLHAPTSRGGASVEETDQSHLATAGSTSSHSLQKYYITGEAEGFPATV", "experiment": "ERE-luciferase reporter gene assay, wild-type ERα, Caov2 cells", "format": "cell-based", "experimental": "(§1) ExSite mutagenesis was performed using the corresponding primers as summarized in Table 1 below on a pENTR2B ERα WT construct using Pfu ultra taq polymerase. The primers were PNK phosphorylated. Following PCR amplification, the products were digested with DpnI at 37° C. for 1 hr, followed by overnight ligation at 16° C. Ligated products were transformed into DH5α bacterial cells and grown on kanamycin resistant plates. The pENTR clones were verified by sequencing and then swapped into the pcDNA-DEST vector using the Gateway system (Invitrogen) for expression analysis.\n(§2) Caov2 ovarian carcinoma cells were grown in RPMI-1640 media (Gibco) supplemented with 8% Fetal Bovine Serum (FBS), Sodium Pyruvate (NaPyr) and non-essential amino acids (NEAA) and passaged every 2-3 days. SKBR3 breast adenocarcinoma cells were grown in DMEM media (Gibco) supplemented with 8% Fetal Bovine Serum (FBS), Sodium Pyruvate (NaPyr) and non-essential amino acids (NEAA) and passaged every 2-3 days. […]\n(§3) Caov2 cells were co-transfected with the 7X-TK-ERE-TATA luciferase reporter gene (Nagel et al., Endocrinology 142(11): 4721-4728 (2001)) and expression constructs for either wild-type or mutant receptors using Fugene transfection reagent (Promega). […] Following 24 hours of treatment, cells were lysed and the luciferase and β-gal assays were performed as described previously (Norris et al., J Biol Chem 270(39): 22777-22782 (1995)) and the plates were read on the Fusion α-FP HT plate reader (PerkinElmer Life Sciences).\n(§4) See Jeselsohn et al., Nature Reviews Clinical Oncology 12(10): 573-583 (2015); Jeselsohn et al., Clinical Cancer Research 20(7): 1757-1767 (2014); Robinson et al., Nature Genetics 45(12): 1446-1451(2013); Thomas and Gustafsson, Trends in Endocrinology and Metabolism 26(9): 467-476 (2015); and Toy et al., Nature Genetics 45(12): 1439-1445 (2013). The activity of these mutants was evaluated in a reconstituted estrogen response element (ERE)-luciferase reporter assay in Caov2 ovarian carcinoma cells and SKBR3 breast adenocarcinoma cells. […]"}, "[2]": {"target": "T2, Y537N mutant receptor (ERα LBD mutant) (Homo sapiens, UniProt P03372, Y537N)", "T2 construct": "expressed in transfected cells; host or cells: Caov2 ovarian carcinoma cells; SKBR3 breast adenocarcinoma cells", "T2 sequence (P03372 1-595 Y537N)": "T1 sequence (P03372 1-595) with Y537N", "experiment": "ERE-luciferase reporter gene assay, ERα Y537N, Caov2 cells", "format": "cell-based", "experimental": "as §1, §2, §3, §4"}, "[3]": {"target": "T3, Y537C mutant receptor (ERα LBD mutant) (Homo sapiens, UniProt P03372, Y537C)", "T3 construct": "expressed in transfected cells; host or cells: Caov2 ovarian carcinoma cells; SKBR3 breast adenocarcinoma cells", "T3 sequence (P03372 1-595 Y537C)": "T1 sequence (P03372 1-595) with Y537C", "experiment": "ERE-luciferase reporter gene assay, ERα Y537C, Caov2 cells", "format": "cell-based", "experimental": "as §1, §2, §3, §4"}, "[4]": {"target": "T1, ESR1 wild type receptor (ERα WT)", "experiment": "ERE-luciferase reporter gene assay, wild-type ERα, SKBR3 cells", "format": "cell-based", "experimental": "as §1, §2, §3, §4"}, "[5]": {"target": "T2, Y537N mutant receptor (ERα LBD mutant)", "experiment": "ERE-luciferase reporter gene assay, ERα Y537N, SKBR3 cells", "format": "cell-based", "experimental": "as §1, §2, §3, §4"}, "[6]": {"target": "T3, Y537C mutant receptor (ERα LBD mutant)", "experiment": "ERE-luciferase reporter gene assay, ERα Y537C, SKBR3 cells", "format": "cell-based", "experimental": "as §1, §2, §3, §4"}, "[7]": {"experiment": "Reported Cmax in blood at approved doses", "format": "in vivo", "from_the_text": "See Maximov et al., Current Clinical Pharmacology 8(2): 135-155 (2013) and McDonnell et al., Journal of Medicinal Chemistry 58(12): 4883-4887 (2015). The transcriptional IC90 values of ER modulators evaluated were compared to the Cmax of these compounds in blood at approved doses. See Highlights of Prescribing Information: Evista, 2007; Highlights of Prescribing Information: Faslodex, 2012; Nolvadex, 2006; and Summary of Product Characteristics: Conbriza 2009."}, "[8]": {"conditions": "in blood at approved doses: ICI 500 mg, 4OHT 20 mg, raloxifene 60 mg, bazedoxifene 20 mg; cited from earlier work"}, "[9]": {"conditions": "human, blood, reported Cmax converted to molar, same approved doses, read-out: Converted (M) Cmax"}}, "note": "Residue numbers refer to the chain shown, from its start. Like-named read-outs stand apart in the source and are kept apart here.", "data": [{"compound": "4-hydroxytamoxifen [4OHT]", "values": [{"measurement": "Caov2 Ratio Cmax/IC90", "setting": "[1]", "value": 119.01}, {"measurement": "IC90", "setting": "[1]", "value": 0.924, "unit": "nM"}, {"measurement": "inhibition of receptor transcriptional activity (in words)", "setting": "[1]", "value": "inhibits activity of the ESR1 wild type receptor"}, {"measurement": "Caov2 Ratio Cmax/IC90", "setting": "[2]", "value": 11.6}, {"measurement": "IC90", "setting": "[2]", "value": 9.45, "unit": "nM"}, {"measurement": "inhibition of receptor transcriptional activity (in words)", "setting": "[2]", "value": "inhibits the Y537N mutant receptor activity in a dose-response manner"}, {"measurement": "Caov2 Ratio Cmax/IC90", "setting": "[3]", "value": 13.24}, {"measurement": "IC90", "setting": "[3]", "value": 8.31, "unit": "nM"}, {"measurement": "inhibition of receptor transcriptional activity (in words)", "setting": "[3]", "value": "inhibits the Y537C mutant receptor activity in a dose-response manner"}, {"measurement": "IC90", "setting": "[4]", "value": 3.2, "unit": "nM"}, {"measurement": "SKBR3 Ratio Cmax/IC90", "setting": "[4]", "value": 34.38}, {"measurement": "inhibition of receptor transcriptional activity (in words)", "setting": "[4]", "value": "inhibits the ESR1 wild type receptor activity"}, {"measurement": "IC90", "setting": "[5]", "value": 130, "unit": "nM"}, {"measurement": "SKBR3 Ratio Cmax/IC90", "setting": "[5]", "value": 0.85}, {"measurement": "inhibition of receptor transcriptional activity (in words)", "setting": "[5]", "value": "inhibits the Y537N mutant receptor activity in a dose-response manner"}, {"measurement": "IC90", "setting": "[6]", "value": 59, "unit": "nM"}, {"measurement": "SKBR3 Ratio Cmax/IC90", "setting": "[6]", "value": 1.86}, {"measurement": "inhibition of receptor transcriptional activity (in words)", "setting": "[6]", "value": "inhibits the Y537C mutant receptor activity in a dose-response manner"}, {"measurement": "Cmax", "setting": "[7]; in vivo", "value": "1.1e-07", "unit": "M"}, {"measurement": "Reported Cmax", "setting": "[8]", "value": 40, "unit": "ng/mL"}]}, {"compound": "Cc1c(-c2ccc(O)cc2)n(Cc2ccc(OCCN3CCCCCC3)cc2)c2ccc(O)cc12", "note": "[Bazedoxifene, bazedoxifene]", "values": [{"measurement": "Cmax", "setting": "[7]; [9]", "value": "7.29e-09", "unit": "M"}, {"measurement": "Reported Cmax", "setting": "[8]", "value": 6.2, "unit": "ng/mL"}]}, {"compound": "C[C@]12CC[C@@H]3c4ccc(O)cc4C[C@@H](CCCCCCCCC[S+]([O-])CCCC(F)(F)C(F)(F)F)[C@H]3[C@@H]1CC[C@@H]2O", "note": "(some centres unmarked) [ICI, fulvestrant]", "values": [{"measurement": "Cmax", "setting": "[7]; human, in vivo", "value": "4.6e-08", "unit": "M"}, {"measurement": "Reported Cmax", "setting": "[8]", "value": 28, "unit": "ng/mL"}]}, {"compound": "O=C(c1ccc(OCCN2CCCCC2)cc1)c1c(-c2ccc(O)cc2)sc2cc(O)ccc12", "note": "[Raloxifene, raloxifene]", "values": [{"measurement": "Cmax", "setting": "[7]; [9]", "value": "2.87e-09", "unit": "M"}, {"measurement": "Reported Cmax", "setting": "[8]", "value": 1.36, "unit": "ng/mL"}]}]}
